Laboratory results as given in ChEMBL document CHEMBL4308841, “Synthesis, in vitro antiproliferative activity, and kinase inhibitory effects of pyrazole-containing diarylureas and diarylamides” (Eur J Med Chem, 2018).

Legend:
[1] = tested on: MOLT-4; assay: Growth inhibition of human MOLT4 cells assessed as cell growth at 0.01 uM incubated for 48 hrs by sulforhodamine B assay relative to control; type: functional; conditions: MOLT-4, 48 h, read-out: Activity
[2] = tested on: Malme-3M; assay: Growth inhibition of human MALME-3M cells assessed as cell growth at 100 uM incubated for 48 hrs by sulforhodamine B assay relative to control; type: functional; conditions: read-out: Activity
[3] = tested on: OVCAR-8; assay: Growth inhibition of human OVCAR8 cells assessed as cell growth at 0.01 uM incubated for 48 hrs by sulforhodamine B assay relative to control; type: functional; conditions: OVCAR-8, 48 h, read-out: Activity
[4] = tested on: SK-OV-3; assay: Growth inhibition of human SKOV3 cells incubated for 48 hrs by sulforhodamine B assay; type: functional, cell-based; conditions: SK-OV-3, 48 h
[5] = tested on: SNB-19; assay: Growth inhibition of human SNB19 cells incubated for 48 hrs by sulforhodamine B assay; type: functional, cell-based; conditions: SNB-19, 48 h
[6] = tested on: NCI-H522; assay: Growth inhibition of human NCI-H522 cells assessed as cell growth at 0.1 uM incubated for 48 hrs by sulforhodamine B assay relative to control; type: functional; conditions: NCI-H522, 48 h, read-out: Activity
[7] = tested on: SW-620; assay: Growth inhibition of human SW620 cells assessed as cell growth at 100 uM incubated for 48 hrs by sulforhodamine B assay relative to control; type: functional; conditions: SW-620, 48 h, read-out: Activity
[8] = tested on: SF-295; assay: Growth inhibition of human SF295 cells assessed as cell growth at 1 uM incubated for 48 hrs by sulforhodamine B assay relative to control; type: functional; conditions: SF-295, 48 h, read-out: Activity
[9] = tested on: HT-29; assay: Growth inhibition of human HT-29 cells assessed as cell growth at 0.1 uM incubated for 48 hrs by sulforhodamine B assay relative to control; type: functional; conditions: HT-29, 48 h, read-out: Activity
[10] = tested on: A549; assay: Growth inhibition of human A549/ATCC cells assessed as cell growth at 0.1 uM incubated for 48 hrs by sulforhodamine B assay relative to control; type: functional; conditions: A549, 48 h, read-out: Activity
[11] = tested on: HOP-62; assay: Growth inhibition of human HOP62 cells assessed as cell growth at 0.1 uM incubated for 48 hrs by sulforhodamine B assay relative to control; type: functional; conditions: HOP-62, 48 h, read-out: Activity
[12] = tested on: HL-60(TB); assay: Growth inhibition of human HL-60(TB) cells assessed as cell growth at 1 uM incubated for 48 hrs by sulforhodamine B assay relative to control; type: functional; conditions: HL-60, 48 h, read-out: Activity
[13] = tested on: NCI-H460; assay: Growth inhibition of human NCI-H460 cells assessed as cell growth at 0.01 uM incubated for 48 hrs by sulforhodamine B assay relative to control; type: functional; conditions: NCI-H460, 48 h, read-out: Activity
[14] = tested on: KM12; assay: Growth inhibition of human KM12 cells incubated for 48 hrs by sulforhodamine B assay; type: functional, cell-based; conditions: KM12, 48 h
[15] = tested on: T47D; assay: Growth inhibition of human T47D cells assessed as cell growth at 0.01 uM incubated for 48 hrs by sulforhodamine B assay relative to control; type: functional; conditions: read-out: Activity
[16] = tested on: HT-29; assay: Growth inhibition of human HT-29 cells incubated for 48 hrs by sulforhodamine B assay; type: functional, cell-based; conditions: HT-29, 48 h
[17] = tested on: MDA-MB-231; assay: Growth inhibition of human MDA-MB-231 cells assessed as cell growth at 0.1 uM incubated for 48 hrs by sulforhodamine B assay relative to control; type: functional; conditions: MDA-MB-231, 48 h, read-out: Activity
[18] = tested on: ACHN; assay: Growth inhibition of human ACHN cells assessed as cell growth at 0.1 uM incubated for 48 hrs by sulforhodamine B assay relative to control; type: functional; conditions: read-out: Activity
[19] = tested on: UACC-257; assay: Growth inhibition of human UACC257 cells assessed as cell growth at 100 uM incubated for 48 hrs by sulforhodamine B assay relative to control; type: functional; conditions: UACC-257, 48 h, read-out: Activity
[20] = tested on: NCI-H23; assay: Growth inhibition of human NCI-H23 cells assessed as cell growth at 0.01 uM incubated for 48 hrs by sulforhodamine B assay relative to control; type: functional; conditions: NCI-H23, 48 h, read-out: Activity
[21] = tested on: HCT-15; assay: Growth inhibition of human HCT15 cells assessed as cell growth at 1 uM incubated for 48 hrs by sulforhodamine B assay relative to control; type: functional; conditions: HCT-15, 48 h, read-out: Activity
[22] = tested on: ACHN; assay: Growth inhibition of human ACHN cells assessed as cell growth at 0.01 uM incubated for 48 hrs by sulforhodamine B assay relative to control; type: functional; conditions: read-out: Activity
[23] = tested on: ACHN; assay: Growth inhibition of human ACHN cells incubated for 48 hrs by sulforhodamine B assay; type: functional, cell-based
[24] = tested on: K562; assay: Growth inhibition of human K562 cells assessed as cell growth at 100 uM incubated for 48 hrs by sulforhodamine B assay relative to control; type: functional; conditions: K562, 48 h, read-out: Activity
[25] = tested on: CCRF-CEM; assay: Growth inhibition of human CCRF-CEM cells incubated for 48 hrs by sulforhodamine B assay; type: functional, cell-based
[26] = tested on: DU-145; assay: Growth inhibition of human DU145 cells assessed as cell growth at 1 uM incubated for 48 hrs by sulforhodamine B assay relative to control; type: functional; conditions: DU-145, 48 h, read-out: Activity
[27] = tested on: SK-MEL-5; assay: Growth inhibition of human SK-MEL-5 cells incubated for 48 hrs by sulforhodamine B assay; type: functional, cell-based; conditions: SK-MEL-5, 48 h
[28] = tested on: COLO 205; assay: Growth inhibition of human COLO205 cells incubated for 48 hrs by sulforhodamine B assay; type: functional, cell-based; conditions: COLO 205, 48 h
[29] = read-out: LC50 (the source's name)
[30] = read-out: pLC50 (the source's name) (converted)

Which results are given for `O=C(Nc1cccc(-n2cc(-c3ccncc3)c(-c3cc(O)cc(Cl)c3)n2)c1)c1ccc(N2CCOCC2)c(C(F)(F)F)c1`?
growth at 0.01 µM [1]: 93%; growth at 100 µM [2]: -25%; growth at 0.01 µM [3]: 101%; GI50 ([4]; read-out: GI50): 95.3 µM; CC50 [4, 29]: > 100 µM; TGI ([4]; read-out: TGI): > 100 µM; GI50 ([4]; read-out: pGI50 (converted)): 9.55 µM; CC50 [4, 30]: > 100 µM; TGI ([4]; read-out: pTGI (converted)): > 100 µM; GI50 ([5]; read-out: GI50): 3.33 µM; CC50 [5, 29]: > 100 µM; TGI ([5]; read-out: TGI): 33.8 µM; GI50 ([5]; read-out: pGI50 (converted)): 3.31 µM; CC50 [5, 30]: > 100 µM; TGI ([5]; read-out: pTGI (converted)): 33.9 µM; growth at 0.1 µM [6]: 90%; growth at 100 µM [7]: -19%; growth at 1 µM [8]: 39%; growth at 0.1 µM [9]: 95%; growth at 0.1 µM [10]: 97%; growth at 0.1 µM [11]: 112%; growth at 1 µM [12]: 44%; growth at 0.01 µM [13]: 104%; GI50 ([14]; read-out: GI50): 1.21 µM; CC50 [14, 29]: > 100 µM; TGI ([14]; read-out: TGI): > 100 µM; GI50 ([14]; read-out: pGI50 (converted)): 1.2 µM; CC50 [14, 30]: > 100 µM; TGI ([14]; read-out: pTGI (converted)): > 100 µM; growth at 0.01 µM [15]: 97%; GI50 ([16]; read-out: GI50): 3.03 µM; CC50 [16, 29]: > 100 µM; TGI ([16]; read-out: TGI): 11.3 µM; GI50 ([16]; read-out: pGI50 (converted)): 3.02 µM; CC50 [16, 30]: > 100 µM; TGI ([16]; read-out: pTGI (converted)): 11.2 µM; growth at 0.1 µM [17]: 92%; growth at 0.1 µM [18]: 99%; growth at 100 µM [19]: -27%; growth at 0.01 µM [20]: 105%; growth at 1 µM [21]: 35%; growth at 0.01 µM [22]: 100%; GI50 ([23]; read-out: GI50): 1.54 µM; CC50 [23, 29]: > 100 µM; TGI ([23]; read-out: TGI): 29.3 µM; GI50 ([23]; read-out: pGI50 (converted)): 1.82 µM; CC50 [23, 30]: > 100 µM; TGI ([23]; read-out: pTGI (converted)): 29.5 µM; growth at 100 µM [24]: -24%; GI50 ([25]; read-out: GI50): 0.543 µM; CC50 [25, 29]: > 100 µM; TGI ([25]; read-out: TGI): > 100 µM; GI50 ([25]; read-out: pGI50 (converted)): 0.562 µM; CC50 [25, 30]: > 100 µM; TGI ([25]; read-out: pTGI (converted)): > 100 µM; growth at 1 µM [26]: 92%; GI50 ([27]; read-out: GI50): 2.33 µM; CC50 [27, 29]: 45.4 µM; TGI ([27]; read-out: TGI): 84.9 µM; GI50 ([27]; read-out: pGI50 (converted)): 2.34 µM; CC50 [27, 30]: 46.8 µM; TGI ([27]; read-out: pTGI (converted)): 8.51 µM; GI50 ([28]; read-out: GI50): 1.75 µM; CC50 [28, 29]: > 100 µM; TGI ([28]; read-out: TGI): 64.5 µM; GI50 ([28]; read-out: pGI50 (converted)): 17.4 µM; CC50 [28, 30]: > 100 µM; TGI ([28]; read-out: pTGI (converted)): 64.6 µM
